Structures can show the parent of a compound that is named as a salt. Where two headings read alike, the source gives them in different places.
Test system: PRKACA-PRKAR2A interaction (SmBiT-PRKACA / LgBiT-PRKAR2A), protein kinase A
Set-up: NanoLuc complementation counter-screen in cell extract, PRKACA with PRKAR2A, loss of luminescence, detects NanoLuc interference
Details: counter-screen for NanoLuc interference, 0.5 h, 20 µM, inhibitor

Inh (PKA) [%]	Inh (PKA) (Inh (PKA)) [%]	SMILES
43.77	–	COC1=CC(c2cc3ccccc3[nH]2)=N/C1=C\c1[nH]c(C)cc1C [UM0141758:01, Obatoclax mesylate (GX15-070)]
12.84	–	Cc1cc2c(C(=O)NC[C@H](C)c3ccccc3)c(O)c(O)cc2c(O)c1-c1c(C)cc2c(C(=O)NC[C@H](C)c3ccccc3)c(O)c(O)cc2c1O [UM0141759:01, Sabutoclax]
10.18	–	OCc1ccc(-c2ccc(-c3ccc(CO)s3)o2)s1 [UM0141761:01, RITA (NSC 652287)]
3.72	–	C/C(=N\NC(=S)N1CCC1)c1ccccn1 [UM0141763:01, NSC 319726]
2.798	–	Nc1cccc2c1C(=O)N(C1CCC(=O)NC1=O)C2=O (stereo not drawn) [UM0141764:01, Pomalidomide (CC-4047)]
5.445	–	CN1C(=O)C(Cc2c[nH]c3ccccc23)NC1=S (stereo not drawn) [UM0141765:01, Necrostatin-1]
-0.2984	–	O=C1CCC(N2C(=O)c3ccccc3C2=O)C(=O)N1 (stereo not drawn) [UM0141766:01, Thalidomide]
0.9715	–	COCC[n+]1c2c(n(Cc3cnccn3)c1C)C(=O)c1ccccc1C2=O [UM0141767:01, YM155]
1.968	–	COc1ccc(C2=N[C@@H](c3ccc(Cl)cc3)[C@@H](c3ccc(Cl)cc3)N2C(=O)N2CCNC(=O)C2)c(OC(C)C)c1 [UM0141768:01, Nutlin-3]
2.732	–	CC(C)c1ccccc1Cc1cc(C(=O)Nc2ccc(S(=O)(=O)c3ccccc3C(C)(C)C)cc2)c(O)c(O)c1O [UM0141770:01, TW-37]
7.726	–	S=C(NCc1ccc2c(c1)OCO2)N1CCN(c2ncnc3c2oc2ccccc23)CC1 [UM0141771:01, Amuvatinib (MP-470, HPK 56)]
5.429	–	C[C@]12CC[C@H](O)CC1=CC[C@@H]1[C@@H]2CC[C@]2(C)C(c3cccnc3)=CC[C@@H]12 [UM0141772:01, Abiraterone]
6.091	–	O=C(Nc1ccncc1)c1cc([N+](=O)[O-])ccc1Cl [UM0141773:01, T0070907]
22.49	–	Cc1cccc(Nc2cc(Cl)nc(SCC(=O)O)n2)c1C [UM0141774:01, WY-14643 (Pirinixic Acid)]
4.362	–	CC(C)c1nc(CN(C)C(=O)N[C@@H](CCN2CCOCC2)C(=O)N[C@H](CC[C@H](Cc2ccccc2)NC(=O)OCc2cncs2)Cc2ccccc2)cs1 [UM0141776:01, Cobicistat (GS-9350)]
1.324	–	CCOc1cc([C@@H](CS(C)(=O)=O)N2C(=O)c3cccc(NC(C)=O)c3C2=O)ccc1OC [UM0141777:01, Apremilast (CC-10004)]
69.24	–	CC(C)c1cc(C(C)C)c(CC(=O)NS(=O)(=O)Oc2c(C(C)C)cccc2C(C)C)c(C(C)C)c1 [UM0141778:01, Avasimibe]
21.52	–	O=C(Nc1c(Cl)cncc1Cl)c1ccc(OC(F)F)c(OCC2CC2)c1 [UM0141779:01, Roflumilast]
0.951	–	C[C@@H](c1ncncc1F)[C@](O)(Cn1cncn1)c1ccc(F)cc1F [UM0141780:01, Voriconazole]
–	4.187	CCCc1nn(C)c2c(=O)[nH]c(-c3cc(S(=O)(=O)N4CCN(C)CC4)ccc3OCC)nc12 [UM0141781:01, Sildenafil Citrate]

Inh (PKA) [%]	Inh (PKA) (Inh (PKA)) [%]	SMILES
3.783	–	CCCc1nc(C)c2c(O)nc(-c3cc(S(=O)(=O)N4CCN(CC)CC4)ccc3OCC)nn12 [UM0141782:01, Vardenafil HCl Trihydrate]
13.53	–	CCc1ccc(CCOc2ccc(CC3SC(=O)NC3=O)cc2)nc1 (stereo not drawn) [UM0141783:01, Pioglitazone HCl]
39.54	–	Cn1cc(-c2ccncc2)c(-c2ccc(OCc3ccc4ccccc4n3)cc2)n1 [UM0141784:01, PF-2545920]
0.0216	–	CNC(=O)c1ccc2cc([C@@]3(O)CCn4cncc43)ccc2c1 [UM0141785:01, TAK-700 (Orteronel)]
-0.06153	–	COc1ccc(C2CNC(=O)C2)cc1OC1CCCC1 (stereo not drawn) [UM0141786:01, Rolipram]
3.135	–	COc1ccc([C@H]2CNC(=O)C2)cc1OC1CCCC1 [UM0141786:02, S- (+)-Rolipram]
0.1397	–	COc1ccc([C@]2(C#N)CC[C@@H](C(=O)O)CC2)cc1OC1CCCC1 [UM0141787:01, Cilomilast]
11.7	–	COc1cccc(Nc2c(C(N)=O)cnc3c(C)cc(S(=O)(=O)c4cccc(C(=O)N(C)C)c4)cc23)c1 [UM0141788:01, GSK256066]
5.542	–	NCc1c[nH]c(=S)n1[C@H]1CCc2c(F)cc(F)cc2C1 [UM0141789:01, Nepicastat (SYN-117) HCl]
31.69	–	O=C(O)CCCCC(CCSCc1ccccc1)SCc1ccccc1 (stereo not drawn) [UM0141790:01, CPI-613]
18.48	–	COc1ccc(CNc2nc(N3CCC[C@H]3CO)ncc2C(=O)NCc2ncccn2)cc1Cl [UM0141791:01, Avanafil]
3.705	–	COc1c(C)c2c(c(O)c1C/C=C(\C)CCC(=O)OCCN1CCOCC1)C(=O)OC2 [UM0141793:01, Mycophenolate Mofetil]
3.84	–	O=C(NC[C@H]1CN(c2ccc(N3CCOCC3=O)cc2)C(=O)O1)c1ccc(Cl)s1 [UM0141794:01, Rivaroxaban]
4.354	–	Cc1ccccc1C(C(=O)NC1CCCCC1)N(C(=O)Cn1ccnc1C)c1cccc(F)c1 (stereo not drawn) [UM0141795:01, AGI-5198]
10.77	–	COc1ccc(-c2nc3cc(C4=NNC(=O)CC4C)ccc3[nH]2)cc1 (stereo not drawn) [UM0141796:01, Pimobendan]
1.88	–	COc1ccc(-n2nc(C(N)=O)c3c2C(=O)N(c2ccc(N4CCCCC4=O)cc2)CC3)cc1 [UM0141797:01, Apixaban]
0.03154	–	Oc1cc(O)c(Cl)cn1 [UM0141798:01, Gimeracil]
–	1.747	O=C(O)/C=C/c1ccc(Cn2ccnc2)cc1 [UM0141799:01, Ozagrel]
15.63	–	O=C(O)Cn1nnc(-c2cc(N3CCC(Oc4cc(F)ccc4Br)CC3)no2)n1 [UM0141800:01, MK-8245]
1.891	–	C[C@]12CC[C@H]3[C@@H](CC[C@@]45O[C@@H]4C(O)=C(C#N)C[C@]35C)[C@@H]1CC[C@@H]2O [UM0141801:01, Trilostane]

Inh (PKA) [%]	Inh (PKA) (Inh (PKA)) [%]	SMILES
2.023	–	C#CCC(Cc1cnc2nc(N)nc(N)c2n1)c1ccc(C(=O)N[C@@H](CCC(=O)O)C(=O)O)cc1 (stereo partly drawn) [UM0141802:01, Pralatrexate]
1.467	–	O=C(NNc1ccccc1)c1ccncc1 [UM0141803:01, PluriSIn #1 (NSC 14613)]
2.161	–	O=C1CN2Cc3c(ccc(Cl)c3Cl)N=C2N1 [UM0141804:01, Anagrelide HCl]
5.594	–	CC(C)C[C@@H](C(=O)N[C@H](C(=O)OC1CCCC1)c1ccccc1)[C@H](O)C(=O)NO [UM0141805:01, Tosedostat (CHR2797)]
3.096	–	NS(=O)(=O)c1ccc(NC(=O)Nc2ccc(F)cc2)cc1 [UM0141807:01, U-104]
0.4952	–	CC1(C)O[C@@H]2[C@@H](CO[C@@]3(COS(N)(=O)=O)OC(C)(C)O[C@@H]23)O1 [UM0141808:01, Topiramate]
14.88	–	CC(C)n1c(/C=C/[C@@H](O)C[C@@H](O)CC(=O)O)c(-c2ccc(F)cc2)c2ccccc21 [UM0141809:01, Fluvastatin Sodium]
2.611	–	C#CCN[C@@H]1CCc2ccccc21 [UM0141810:01, Rasagiline Mesylate]
2.51	–	C[C@H](NCc1ccc(OCc2cccc(F)c2)cc1)C(N)=O [UM0141812:01, Safinamide Mesylate]
0.8236	–	CC[C@H](C)C(=O)O[C@H]1C[C@H](O)C=C2C=C[C@H](C)[C@H](CC[C@@H](O)C[C@@H](O)CC(=O)O)[C@H]21 [UM0141813:01, Pravastatin sodium]
-2.323	–	COc1cc(F)c(C(C)C)cc1-c1ccc(C(F)(F)F)cc1CN1C(=O)O[C@H](c2cc(C(F)(F)F)cc(C(F)(F)F)c2)[C@@H]1C [UM0141816:01, Anacetrapib (MK-0859)]
16.33	–	CCC(CC)CC1(C(=O)Nc2ccccc2SC(=O)C(C)C)CCCCC1 [UM0141817:01, Dalcetrapib (JTT-705, RO4607381)]
12.81	–	Cc1cc(C)c2c(c1)[C@@H](N(Cc1cc(C(F)(F)F)cc(C(F)(F)F)c1)c1nnn(C)n1)CCCN2C[C@H]1CC[C@H](C(=O)O)CC1 [UM0141818:01, Evacetrapib (LY2484595)]
4.254	–	CCOC(=O)N1c2ccc(C(F)(F)F)cc2[C@@H](N(Cc2cc(C(F)(F)F)cc(C(F)(F)F)c2)C(=O)OC)C[C@H]1CC [UM0141819:01, Torcetrapib]
11.04	–	NC(=O)N1CCC(CC(=O)N2CCC([C@H]3c4ncc(Br)cc4CCc4cc(Cl)cc(Br)c43)CC2)CC1 [UM0141820:01, Lonafarnib]
–	3.817	O=C(/C=C/c1cccnc1)NCCCCC1CCN(C(=O)c2ccccc2)CC1 [UM0141821:01, FK866 (APO866)]
32.88	–	O=C(Nc1ccccc1)Nc1ccc(-c2ccc(C(=O)[C@@H]3CCC[C@H]3C(=O)O)cc2)cc1 [UM0141822:01, A922500]
63.96	–	Cc1ccc(C(=O)c2cc(O)c(O)c([N+](=O)[O-])c2)cc1 [UM0141823:01, Tolcapone]
1.569	–	Nc1ncnc2c1C(=O)N(c1ccc([C@H]3CC[C@H](CC(=O)O)CC3)cc1)CCO2 [UM0141824:01, PF-04620110]
30.75	–	CC(C)c1cc(-c2n[nH]c(=O)n2-c2ccc3c(ccn3C)c2)c(O)cc1O [UM0141825:01, Ganetespib (STA-9090)]

SMILES	Inh (PKA) [%]	Inh (PKA) (Inh (PKA)) [%]
Cc1cc(SCc2sc(-c3ccc(C(F)(F)F)c(F)c3)nc2C)ccc1OCC(=O)O [UM0141775:01, GW0742]	20.87	–
CCc1c(C(=O)C(N)=O)c2c(OCC(=O)O)cccc2n1Cc1ccccc1 [UM0141806:01, Varespladib (LY315920)]	1.134	–
NC(=O)c1cccc(-c2cccc(OC(=O)NC3CCCCC3)c2)c1 [UM0141814:01, URB597]	16.26	–

Reference: article PMC9995496, “A screen for MeCP2-TBL1 interaction inhibitors using a luminescence-based assay” (Scientific Reports, 2023)
